Series [1] concerns human red blood cells (hRBC). Description: Hemolysis. It is filed as cell-based. Particulars: red cells of human, 1 h, 200. In a few lines:
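Percent lysis of human red cells was derived from OD540 of the supernatant, referenced to 2% Triton X-100, after a 1 h, 37° C incubation of 20% (v/v) cells with 200 μg/mL peptide.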

For series [2], the system named is Escherichia coli ATCC 25922. The series is classed as cell-based. Conditions: ATCC 25922. In a few lines:
(§1)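 Cation-adjusted MH-II broth, 0.002% polysorbate 80, inoculum near 10^6 CFU/mL. MIC read visually after 18-20 h, 35° C; units μg/mL.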

The test system of the next series is Escherichia coli 926415. It is filed as cell-based. Conditions: 926415. In a few lines:
as §1

In series [3] the test system is Acinetobacter baumannii 872842. It is filed as cell-based. Conditions: 872842. In a few lines:
as §1

Series [4] concerns Klebsiella pneumoniae 968733. It is filed as cell-based. Particulars: 968733. In a few lines: as §1
Series [5] concerns Klebsiella pneumoniae SSI #3010. It is filed as cell-based. Particulars: SSI #3010. The gist of the method:
as §1

Series [6] has as its system Enterobacter cloacae 848840. The series is classed as cell-based. Particulars: 848840. The gist of the method:
as §1

Series [7] deals with Acinetobacter baumannii DSM 30008. It is filed as cell-based. Conditions: DSM 30008. The gist of the method:
as §1

The test system of series [8] is Pseudomonas aeruginosa ATCC 27853. It is filed as cell-based. Particulars: ATCC 27853. In a few lines: as §1
A further series relates to male ICR mice. Description: Tolerability in a mouse model (Maximum Tolerated Dose assay). The series is classed as in vivo. Conditions: groups of 3. The protocol: The tolerability of the peptides was tested in a mouse model at Pharmacology Discovery Services Taiwan Ltd, Taipei, Taiwan. The peptides were administered subcutaneously (s.c.) at 30 mg/kg or 40 mg/kg, respectively; twice at a 12-hr interval, for assessment of possible adverse effects in the Maximum Tolerated Dose (MTD) assay in male ICR (Institute of Cancer Research) mice. The peptides were dissolved in 0.9% NaCl at the concentrations either of 6 or 8 mg/mL, respectively, based on the free base molecular weight. The pH values of dosing solutions were adjusted to 6.5-7.6 before s.c. administration. A dosing volume at 5 mL/kg and a concentration of 6 or 8 mg/mL, respectively, was applied. The fresh prepared stock solution were stored at 4° C. during the study. Male ICR mice weighing 23±3 g were provided by BioLasco Taiwan (under Charles River Laboratories Licensee). Animals were acclimated for 3 days prior to use and were confirmed to be in good health. The peptides were administered s.c. at 30 mg/kg or 40 mg/kg, respectively, twice at a 12-hr interval, to groups of 3 ICR male mice and observed for the presence of acute toxic symptoms (mortality, convulsions, tremors, muscle relaxation, sedation, etc.) and autonomic effects (diarrhea, salivation, lacrimation, vasodilation, piloerection, etc.) during the first 30 min. The peptides were administered again at a 12-hr (two total doses) interval, following the first dose. The animals were then observed again for the presence of acute toxic symptoms and autonomic effects during the first 30 min.

The mark [9] stands for this setting: 2 × 30 mg/kg s.c. at a 12-hr interval.
Where [10] appears, read: 2 × 40 mg/kg s.c. at a 12-hr interval.

In brackets after ≈: the same amount, converted by molar mass. Where a SMILES comes first, the peptide text is derived from it. Bridges are numbered along the chain shown (N, C = ends). Roman numbers before positions name the chains, in order. [ ]: non-standard residue; d: D form. The star is where a group is joined. Thr(ol) = C[C@@H](O)[C@H](N)CO; Tle = CC(C)(C)[C@H](N)C(=O)O; Hiv = CC(C)[C@H](O)C(=O)O; dDab = NCC[C@@H](N)C(=O)O; NHCH(CH2OH)2 = OCC(CO)N*; Orn = NCCC[C@H](N)C(=O)O; Dab = NCC[C@H](N)C(=O)O; Dap = NC[C@H](N)C(=O)O

What is called MIC is the lowest concentration found to suppress growth. A higher MIC goes with a need for much substance.

For `CC(C)C[C@@H]1NC(=O)[C@@H](CC(C)C)NC(=O)[C@H](CCN)NC(=O)[C@@H](NC(=O)[C@H](CCN)NC(=O)[C@@H](NC(=O)[C@H](CCN)NC(=O)CC[C@@H]2NC(=O)[C@@H](NC(=O)[C@H](Cc3ccc(O)cc3)NC(=O)[C@@H](NC(=O)[C@@H](O)C(C)C)[C@@H](C)O)CSSC[C@@H](C(=O)N[C@H](C(=O)N[C@@H](C)C(=O)N[C@H](CO)[C@@H](C)O)C(C)(C)C)NC(=O)[C@H](Cc3c[nH]c4ccccc34)NC(=O)[C@H]([C@@H](C)O)NC(=O)[C@@H](CCN)NC2=O)[C@@H](C)O)CCNC(=O)[C@H]([C@@H](C)O)NC(=O)[C@H](CCN)NC(=O)[C@H](CCN)NC1=O` [Ex. 188] (I: H-[Hiv]TYCE[dDab]TWC[Tle]A[Thr(ol)] / II: [Dab]T[Dab][Dab][Dab][dL]L[Dab][Dab]T; disulfide I:4-I:9; amide I:5-II:N; lactam II:4-II:C), the “Hemolysis at 200 μg/mL” value in [1] was <1%. Moreover, the MIC turned out to be 0.0625 µg/mL (≈ 0.0262 µM) in [2]; 0.5 µg/mL (≈ 0.21 µM) against Escherichia coli 926415; 0.5 µg/mL (≈ 0.21 µM) in [3]; 1 µg/mL (≈ 0.419 µM) in [4]; 0.25 µg/mL (≈ 0.105 µM) in [5]; 0.5 µg/mL (≈ 0.21 µM) in series [6]. Further, the MIC came to 0.125 µg/mL (≈ 0.0524 µM) in [7] and 0.5 µg/mL (≈ 0.21 µM) in series [8]. Also, the Mortality and dose in the series with male ICR mice (setting [9]) was 0/3 died at 2 × 30 mg/kg.

On to `CC(=O)N[C@H](C(=O)N[C@H]1CSSC[C@@H](C(=O)NC(CO)CO)NC(=O)[C@H](C(C)C)NC(=O)[C@H](CO)NC(=O)[C@H](Cc2c[nH]c3ccccc23)NC(=O)[C@H](CO)NC(=O)[C@@H](CCN)NC(=O)[C@H](CCC(=O)N[C@@H](CCN)C(=O)N[C@H](C(=O)N[C@@H](CN)C(=O)N[C@H]2CCNC(=O)[C@H]([C@@H](C)O)NC(=O)[C@H](CCN)NC(=O)[C@H](CCN)NC(=O)[C@H](CC(C)C)NC(=O)[C@@H](CC(C)C)NC(=O)[C@H](CCN)NC2=O)[C@@H](C)O)NC(=O)[C@H](CCN)NC(=O)[C@H](Cc2ccc(O)cc2)NC1=O)C(C)C` [Ex. 116] (I: Ac-VCY[Dab]E[dDab]SWSVC-{NHCH(CH2OH)2} / II: [Dab]T[Dap][Dab][Dab][dL]L[Dab][Dab]T; disulfide I:2-I:11; amide I:5-II:N; lactam II:4-II:C), for which, in series [1], the “Hemolysis at 200 μg/mL” value is on record as <1%. Further, the minimal inhibitory concentration (MIC) is 0.03125 µg/mL (≈ 0.0131 µM) in series [2]; 0.125 µg/mL (≈ 0.0524 µM) against Escherichia coli 926415; 0.0625 µg/mL (≈ 0.0262 µM) in [3]; 0.25 µg/mL (≈ 0.105 µM) in [4]; 0.03125 µg/mL (≈ 0.0131 µM) in series [5]; 0.03125 µg/mL (≈ 0.0131 µM) in series [6]. Also, the values for the MIC in series [7] and in series [8] were 0.03125 µg/mL (≈ 0.0131 µM) and 0.125 µg/mL (≈ 0.0524 µM), respectively. For the same compound, the Mortality and dose in the series with male ICR mice (setting [9]) is 0/3 died at 2 × 30 mg/kg.

For the compound `CC(=O)N[C@H](C(=O)N[C@H]1CSSC[C@@H](C(=O)N[C@@H](CO)C(N)=O)NC(=O)[C@H](C(C)C)NC(=O)[C@H](CO)NC(=O)[C@H](Cc2c[nH]c3ccccc23)NC(=O)[C@H](CCC(=O)N[C@@H](CCN)C(=O)N[C@H](C(=O)N[C@@H](CN)C(=O)N[C@H]2CCNC(=O)[C@H]([C@@H](C)O)NC(=O)[C@H](CCN)NC(=O)[C@H](CCN)NC(=O)[C@H](CC(C)C)NC(=O)[C@@H](CC(C)C)NC(=O)[C@H](CCN)NC2=O)[C@@H](C)O)NC(=O)[C@@H](CCN)NC(=O)[C@H](Cc2c[nH]cn2)NC(=O)[C@H](CO)NC(=O)[C@H](Cc2ccc(O)cc2)NC1=O)C(C)C` [Ex. 358] (I: Ac-VCYSH[dDab]EWSVCS-NH2 / II: [Dab]T[Dap][Dab][Dab][dL]L[Dab][Dab]T; disulfide I:2-I:11; amide I:7-II:N; lactam II:4-II:C), the “Hemolysis at 200 μg/mL” value in [1] is recorded as 1%. Further, in [2], the “Escherichia coli ATCC 25922 MIC” value amounted to 0.03125 µg/mL. Also, the minimal inhibitory concentration (MIC) against Escherichia coli 926415 amounted to 0.25 µg/mL (≈ 0.103 µM); in series [3] it was 0.0625 µg/mL (≈ 0.0257 µM); in series [4], 0.25 µg/mL (≈ 0.103 µM); in series [6] it was 0.125 µg/mL (≈ 0.0513 µM). Further, in series [5], the “Klebsiella pneumoniae SSI #3010 MIC” value was 0.125 µg/mL. The “Acinetobacter baumannii DSM 30008 MIC” value in series [7] was 0.03125 µg/mL. In series [8], the “Pseudomonas aeruginosa ATCC 27853 MIC” value was determined as 0.125 µg/mL. Besides, the Mortality and dose in the series on male ICR mice (setting [10]) is 0/3 died at 2 × 40 mg/kg.

For the compound `CC(C)C[C@@H]1NC(=O)[C@@H](CC(C)C)NC(=O)[C@H](CCN)NC(=O)[C@@H](NC(=O)[C@H](CN)NC(=O)[C@@H](NC(=O)[C@H](CCN)NC(=O)CC[C@H]2NC(=O)[C@H](CCCN)NC(=O)[C@H](CCN)NC(=O)[C@H](Cc3ccc(O)cc3)NC(=O)[C@@H](NC(=O)[C@@H](O)C(C)C)CSSC[C@@H](C(=O)N[C@H](C(N)=O)[C@@H](C)O)NC(=O)[C@H](C(C)(C)C)NC(=O)[C@H](CO)NC(=O)[C@H](Cc3c[nH]c4ccccc34)NC(=O)[C@H]([C@@H](C)O)NC2=O)[C@@H](C)O)CCNC(=O)[C@H]([C@@H](C)O)NC(=O)[C@H](CCN)NC(=O)[C@H](CCN)NC1=O` [Ex. 161] (I: H-[Hiv]CY[Dab][Orn][dE]TWS[Tle]CT-NH2 / II: [Dab]T[Dap][Dab][Dab][dL]L[Dab][Dab]T; disulfide I:2-I:11; amide I:6-II:N; lactam II:4-II:C), the “Hemolysis at 200 μg/mL” value in series [1] turned out to be 1%. The MIC came out at 0.125 µg/mL (≈ 0.0518 µM) in series [2]; 0.5 µg/mL (≈ 0.207 µM) against Escherichia coli 926415; 0.25 µg/mL (≈ 0.104 µM) in series [3]; 0.25 µg/mL (≈ 0.104 µM) in series [4]; 0.125 µg/mL (≈ 0.0518 µM) in series [5]; 1 µg/mL (≈ 0.414 µM) in series [6]. Further, the MIC stood at 0.125 µg/mL (≈ 0.0518 µM) in series [7] and 0.25 µg/mL (≈ 0.104 µM) in [8]. Further, the Mortality and dose with male ICR mice (setting [9]) is 0/3 died at 2 × 30 mg/kg.

In the case of `CC(=O)N[C@H](C(=O)N[C@H]1CSSC[C@@H](C(=O)N[C@@H](CO)C(=O)N[C@H](CO)C(N)=O)NC(=O)[C@H](C(C)C)NC(=O)[C@H](CO)NC(=O)[C@H](Cc2c[nH]c3ccccc23)NC(=O)[C@H](CO)NC(=O)[C@@H](CCN)NC(=O)[C@H](CCC(=O)N[C@@H](CCN)C(=O)N[C@H](C(=O)N[C@@H](CN)C(=O)N[C@H]2CCNC(=O)[C@H]([C@@H](C)O)NC(=O)[C@H](CCN)NC(=O)[C@H](CCN)NC(=O)[C@H](CC(C)C)NC(=O)[C@@H](CC(C)C)NC(=O)[C@H](CCN)NC2=O)[C@@H](C)O)NC(=O)[C@H](CCN)NC(=O)[C@H](Cc2ccc(O)cc2)NC1=O)C(C)C` [Ex. 375] (I: Ac-VCY[Dab]E[dDab]SWSVCS[dS]-NH2 / II: [Dab]T[Dap][Dab][Dab][dL]L[Dab][Dab]T; disulfide I:2-I:11; amide I:5-II:N; lactam II:4-II:C), the “Hemolysis at 200 μg/mL” value in series [1] is given as <1%. For the same compound, the “Escherichia coli ATCC 25922 MIC” value in series [2] turned out to be 0.03125 µg/mL. The minimal inhibitory concentration (MIC) against Escherichia coli 926415 was found to be 0.125 µg/mL (≈ 0.0503 µM); in [3], 0.0625 µg/mL (≈ 0.0251 µM); in series [4], 0.125 µg/mL (≈ 0.0503 µM); in [6], 0.25 µg/mL (≈ 0.101 µM). In addition, in series [5], the “Klebsiella pneumoniae SSI #3010 MIC” value was determined as 0.0625 µg/mL. Also, in series [7], the “Acinetobacter baumannii DSM 30008 MIC” value came to 0.03125 µg/mL. Further, in [8], the “Pseudomonas aeruginosa ATCC 27853 MIC” value was 0.125 µg/mL. Moreover, in the series on male ICR mice (setting [10]), the Mortality and dose was 0/3 died at 2 × 40 mg/kg.
